Results on 29 compounds are retold here after patent US10407425B2, “Indazole inhibitors of the Wnt signal pathway and therapeutic uses thereof” (Samumed, LLC, priority 2012, dated 2019).

The subject of this assay is Wnt activity. Nature of the assay: Wnt activity reporter assay (SP5 promoter firefly luciferase in SW480 cells). It counts as cell-based. The settings on record: Homo sapiens; SW480 cells bearing SP5 promoter luciferase reporter; 24 h after compound addition; read-out: Wnt inhibition. The source says:
The above synthesized compounds were screened using the assay procedure for Wnt activity described below.
Reporter cell lines can be generated by stably transducing cells of cancer cell lines (e.g., colon cancer) with a lentiviral construct that include a wnt-responsive promoter driving expression of the firefly luciferase gene.
Lentiviral constructs can be made in which the SP5 promoter, a promoter having eight TCF/LEF binding sites derived from the SP5 promoter, is linked upstream of the firefly luciferase gene. The lentiviral constructs can also include a hygromycin resistance gene as a selectable marker. The SP5 promoter construct can be used to transduce SW480 cells, a colon cancer cell line having a mutated APC gene that generates a truncated APC protein, leading to de-regulated accumulation of β-catenin.
Cultured SW480 cells bearing a reporter construct can be distributed at approximately 10,000 cells per well into 384 well multiwell plates. Compounds from a small molecule compound library can then be added to the wells in half-log dilutions using a three micromolar top concentration. A series of control wells for each cell type receive only buffer and compound solvent. Twenty-four hours after the addition of compound, reporter activity for luciferases can be assayed, for example, by addition of the BrightGlo luminescence reagent (Promega) and the Victor3 plate reader (Perkin Elmer). Readings can be normalized to DMSO only treated cells, and normalized activities can then be used in the IC50 calculations.
(In a reporter assay the amount or activity of a reporter protein is the signal.)
For `Cc1ccncc1-c1ccc2[nH]nc(-c3nc4c(-c5ccncc5)cncc4[nH]3)c2c1` [Compound 154, 2-(5-(4-Methylpyridin-3-yl)-1H-indazol-3-yl)-7-(pyridin-4-yl)-3H-imidazo[4,5-c]pyridine], the IC50 was determined as 373 nM.

Turning to `CCC(=O)Nc1cncc(-c2ccc3[nH]nc(-c4nc5c(-c6ccccn6)cncc5[nH]4)c3c2)c1` [Compound 174, N-(5-(3-(7-(Pyridin-2-yl)-3H-imidazo[4,5-c]pyridin-2-yl)-1H-indazol-5-yl)pyridin-3-yl)propionamide], the IC50 is 3 nM.

As for `Cc1ccncc1-c1ccc2[nH]nc(-c3nc4c(-c5ccc(F)cc5)cncc4[nH]3)c2c1` [Compound 99, 7-(4-Fluorophenyl)-2-(5-(4-methylpyridin-3-yl)-1H-indazol-3-yl)-3H-imidazo[4,5-c]pyridine], the IC50 was over 5000 nM.

With `c1cc(-c2cncc3[nH]c(-c4n[nH]c5ccc(-c6cncc(CNCC7CCCC7)c6)cc45)nc23)ccn1` [Compound 173, 1-Cyclopentyl-N-((5-(3-(7-(pyridin-4-yl)-3H-imidazo[4,5-c]pyridin-2-yl)-1H-indazol-5-yl)pyridin-3-yl)methyl)methanamine], the IC50 is 845 nM.

As for `CC(C)(C)C(=O)Nc1cncc(-c2ccc3[nH]nc(-c4nc5c(N6CCCCC6)cncc5[nH]4)c3c2)c1` [Compound 205, N-(5-(3-(7-(Piperidin-1-yl)-3H-imidazo[4,5-c]pyridin-2-yl)-1H-indazol-5-yl)pyridin-3-yl)pivalamide], the IC50 was determined as 41 nM.

For `FC1(F)CCN(Cc2cncc(-c3ccc4[nH]nc(-c5nc6c(N7CCCCC7)cncc6[nH]5)c4c3)c2)C1` [Compound 342, 2-(5-(5-((3,3-Difluoropyrrolidin-1-yl)methyl)pyridin-3-yl)-1H-indazol-3-yl)-7-(piperidin-1-yl)-3H-imidazo[4,5-c]pyridine], the IC50 amounted to 20 nM.

For `c1cc(-c2cncc3[nH]c(-c4n[nH]c5ccc(-c6cncc(CN7CCCCC7)c6)cc45)nc23)ccn1` [Compound 164, 2-(5-(5-(Piperidin-1-ylmethyl)pyridin-3-yl)-1H-indazol-3-yl)-7-(pyridin-4-yl)-3H-imidazo[4,5-c]pyridine], the IC50 is over 6000 nM.

In the case of `CC(C)CC(=O)Nc1cncc(-c2ccc3[nH]nc(-c4nc5c(-c6ccccc6F)cncc5[nH]4)c3c2)c1` [Compound 11, N-(5-(3-(7-(2-fluorophenyl)-3H-imidazo[4,5-c]pyridin-2-yl)-1H-indazol-5-yl)pyridin-3-yl)-3-methylbutanamide], the IC50 was in the range of 3.5 to 65 nM.

For the compound `c1cncc(-c2ccc3[nH]nc(-c4nc5c(-c6ccoc6)cncc5[nH]4)c3c2)c1` [Compound 315, 7-(Furan-3-yl)-2-(5-(pyridin-3-yl)-1H-indazol-3-yl)-3H-imidazo[4,5-c]pyridine], the IC50 was 22 nM.

Regarding `O=C(Nc1cncc(-c2ccc3[nH]nc(-c4nc5c(-c6cccc(F)c6)cncc5[nH]4)c3c2)c1)C1CCCCC1` [Compound 94, N-(5-(3-(7-(3-Fluorophenyl)-3H-imidazo[4,5-c]pyridin-2-yl)-1H-indazol-5-yl)pyridin-3-yl)cyclohexanecarboxamide], the IC50 was 11 nM.

On to `Fc1cccc(-c2cncc3[nH]c(-c4n[nH]c5ccc(-c6cccnc6)cc45)nc23)c1` [Compound 15, 7-(3-fluorophenyl)-2-(5-(pyridin-3-yl)-1H-indazol-3-yl)-3H-imidazo[4,5-c]pyridine], for which the IC50 fell in the range of 10 to 25 nM.

Consider `CCCC(=O)Nc1cncc(-c2ccc3[nH]nc(-c4nc5c(N6CCCCC6)cncc5[nH]4)c3c2)c1` [Compound 214, N-(5-(3-(7-(Piperidin-1-yl)-3H-imidazo[4,5-c]pyridin-2-yl)-1H-indazol-5-yl)pyridin-3-yl)butyramide], for which the IC50 was 42 nM.

Consider `CN1CCN(c2cncc(-c3ccc4[nH]nc(-c5nc6ccncc6[nH]5)c4c3)c2)CC1` [Compound 7, 2-(5-(5-(4-methylpiperazin-1-yl)pyridin-3-yl)-1H-indazol-3-yl)-3H-imidazo[4,5-c]pyridine], for which the IC50 lay in the range of 214 to 463 nM.

Turning to `CC(C)C(=O)Nc1cncc(-c2ccc3[nH]nc(-c4nc5c(-c6ccccc6F)cncc5[nH]4)c3c2)c1` [Compound 31, N-(5-(3-(7-(2-Fluorophenyl)-3H-imidazo[4,5-c]pyridin-2-yl)-1H-indazol-5-yl)pyridin-3-yl)isobutyramide], the IC50 came out at 5 nM.

On to `CN(C)Cc1cncc(-c2ccc3[nH]nc(-c4nc5c(-c6cccc(F)c6)cncc5[nH]4)c3c2)c1` [Compound 89, 1-(5-(3-(7-(3-Fluorophenyl)-3H-imidazo[4,5-c]pyridin-2-yl)-1H-indazol-5-yl)pyridin-3-yl)-N,N-dimethylmethanamine], for which the IC50 was over 10000 nM.

For `CN(C)Cc1cncc(-c2ccc3[nH]nc(-c4nc5c(N6CCN(C)CC6)cncc5[nH]4)c3c2)c1` [Compound 3, N,N-dimethyl-1-(5-(3-(7-(4-methylpiperazin-1-yl)-3H-imidazo[4,5-c]pyridin-2-yl)-1H-indazol-5-yl)pyridin-3-yl)methanamine], the IC50 lay within 83 to 179 nM.

On to `O=C(Cc1ccccc1)Nc1cncc(-c2ccc3[nH]nc(-c4nc5c(-c6cccc(F)c6)cncc5[nH]4)c3c2)c1` [Compound 86, N-(5-(3-(7-(3-Fluorophenyl)-3H-imidazo[4,5-c]pyridin-2-yl)-1H-indazol-5-yl)pyridin-3-yl)-2-phenylacetamide], for which the IC50 was found to be 23 nM.

Take `CC(C)(C)CC(=O)Nc1cncc(-c2ccc3[nH]nc(-c4nc5ccncc5[nH]4)c3c2)c1` [Compound 280, N-(5-(3-(3H-Imidazo[4,5-c]pyridin-2-yl)-1H-indazol-5-yl)pyridin-3-yl)-3,3-dimethylbutanamide]: the IC50 came out at 21 nM.

For the compound `CN1CCN(c2cncc3[nH]c(-c4n[nH]c5ccc(-c6cccnc6)cc45)nc23)CC1` [Compound 4, 7-(4-methylpiperazin-1-yl)-2-(5-(pyridin-3-yl)-1H-indazol-3-yl)-3H-imidazo[4,5-c]pyridine], the IC50 lay within 13 to 40 nM.

With `O=C(Nc1cncc(-c2ccc3[nH]nc(-c4nc5ccncc5[nH]4)c3c2)c1)C1CCCCC1` [Compound 286, N-(5-(3-(3H-Imidazo[4,5-c]pyridin-2-yl)-1H-indazol-5-yl)pyridin-3-yl)cyclohexanecarboxamide], the IC50 came to 569 nM.

Take `CC(C)CC(=O)Nc1cncc(-c2ccc3[nH]nc(-c4nc5c(-c6ccc(F)cc6)cncc5[nH]4)c3c2)c1` [Compound 12, N-(5-(3-(7-(4-fluorophenyl)-3H-imidazo[4,5-c]pyridin-2-yl)-1H-indazol-5-yl)pyridin-3-yl)-3-methylbutanamide]: the IC50 was in the range of 6 to 8 nM.

`CC(C)CC(=O)Nc1cncc(-c2ccc3[nH]nc(-c4nc5c(-c6cc(F)cc(NCCN(C)C)c6)cncc5[nH]4)c3c2)c1` [Compound 349, N-(5-(3-(7-(3-(2-(Dimethylamino)ethylamino)-5-fluorophenyl)-3H-imidazo[4,5-c]pyridin-2-yl)-1H-indazol-5-yl)pyridin-3-yl)-3-methylbutanamide]: the IC50 was 22 nM.

For `Nc1cncc(-c2ccc3[nH]nc(-c4nc5c(-c6ccc(F)cc6)cncc5[nH]4)c3c2)c1` [Compound 97, 5-(3-(7-(4-Fluorophenyl)-3H-imidazo[4,5-c]pyridin-2-yl)-1H-indazol-5-yl)pyridin-3-amine], the IC50 was 1 nM.

As for `CC(C)CC(=O)Nc1cncc(-c2ccc3[nH]nc(-c4nc5c(-c6cccc(F)c6)cncc5[nH]4)c3c2)c1` [Compound 10, N-(5-(3-(7-(3-fluorophenyl)-3H-imidazo[4,5-c]pyridin-2-yl)-1H-indazol-5-yl)pyridin-3-yl)-3-methylbutanamide], the IC50 was 3.4 to 9 nM.

Turning to `O=C(Cc1ccccc1)Nc1cncc(-c2ccc3[nH]nc(-c4nc5c(-c6ccoc6)cncc5[nH]4)c3c2)c1` [Compound 321, N-(5-(3-(7-(Furan-3-yl)-3H-imidazo[4,5-c]pyridin-2-yl)-1H-indazol-5-yl)pyridin-3-yl)-2-phenylacetamide], the IC50 is 33 nM.

With `Nc1cncc(-c2ccc3[nH]nc(-c4nc5c(-c6ccsc6)cncc5[nH]4)c3c2)c1` [Compound 291, 5-(3-(7-(Thiophen-3-yl)-3H-imidazo[4,5-c]pyridin-2-yl)-1H-indazol-5-yl)pyridin-3-amine], the IC50 was 2 nM.

`CC(C)(C)C(=O)Nc1cncc(-c2ccc3[nH]nc(-c4nc5c(-c6ccc(F)cc6)cncc5[nH]4)c3c2)c1` [Compound 102, N-(5-(3-(7-(4-Fluorophenyl)-3H-imidazo[4,5-c]pyridin-2-yl)-1H-indazol-5-yl)pyridin-3-yl)pivalamide]: the IC50 stood at 4 nM.

`CN1CCN(c2cncc3[nH]c(-c4n[nH]c5ccc(-c6cncc(NC(=O)C7CCCCC7)c6)cc45)nc23)CC1` [Compound 263, N-(5-(3-(7-(4-Methylpiperazin-1-yl)-3H-imidazo[4,5-c]pyridin-2-yl)-1H-indazol-5-yl)pyridin-3-yl)cyclohexanecarboxamide]: the IC50 was found to be 86 nM.

Regarding `CN1CCN(c2cncc3[nH]c(-c4n[nH]c5ccc(-c6cncc(NC(=O)CC(C)(C)C)c6)cc45)nc23)CC1` [Compound 257, 3,3-Dimethyl-N-(5-(3-(7-(4-methylpiperazin-1-yl)-3H-imidazo[4,5-c]pyridin-2-yl)-1H-indazol-5-yl)pyridin-3-yl)butanamide], the IC50 amounted to 95 nM.
